Consider 15 molecules from ChEMBL document CHEMBL5608213, “Synthesis of furanotriterpenoids from betulin and evaluation of Tyrosyl-DNA phosphodiesterase 1 (Tdp1) inhibitory properties of new semi-synthetic triterpenoids” (Eur J Med Chem, 2024).

For orientation: IC50 means the concentration that inhibits the measured activity by half. A word on the CC50: it is the concentration giving 50% cytotoxicity. Lower therefore signals greater toxicity to the cells.

SMILES strings stand for the structures. Where only a bound is given, the exact number is not on record here.

Data set [1] concerns the target Tyrosyl-DNA phosphodiesterase 1 (Homo sapiens, UniProt Q9NUW8). Put plainly: Inhibition of Tdp1 (unknown origin) using 5'-[FAM]AACGTCAGGGTCTTCC[BHQ1]-3' as substrate measured every 55 sec by fluorescence based analysis.
The subject of the next data set is PC-3. The data set can be described thus: Cytotoxicity against human PC-3 cells incubated for 72 hrs by MTT assay. In kind it is functional. In general terms: Tetrazolium dyes change colour on reduction, which living cells bring about.
A short description of data set [2]: Cytotoxicity against human Mel-MS cells incubated for 72 hrs by MTT assay. The data set is classed as functional.
The next data set has as its system MDA-MB-453. Put plainly: Cytotoxicity against human MDA-MB-453 cells incubated for 72 hrs by MTT assay. The data set is classed as functional.
A further data set deals with HCT-116. Put plainly: Cytotoxicity against human HCT-116 cells incubated for 72 hrs by MTT assay. In kind it is functional.
Data set [3] is described as follows: Cytotoxicity against HEK293 cells incubated for 72 hrs by MTT assay. In kind it is toxicity, cell-based. The settings on record: human.
Data set [4] can be described thus: Cytotoxicity against human MCF-10A cells incubated for 72 hrs by MTT assay. In kind it is toxicity, cell-based.
Another data set concerns MCF7. The data set can be described thus: Cytotoxicity against human MCF7 cells incubated for 72 hrs by MTT assay. The data set is classed as functional.
The test system of another data set is MDA-MB-231. Put plainly: Cytotoxicity against human MDA-MB-231 cells incubated for 72 hrs by MTT assay. The data set is classed as functional.
The subject of a further data set is RD. The data set can be described thus: Cytotoxicity against human RD cells incubated for 72 hrs by MTT assay. In kind it is functional.
Data set [5] in a line: Cytotoxicity against human HeLa-V cells incubated for 72 hrs by MTT assay. The data set is classed as functional.
In a further data set the test system is A549. Put plainly: Cytotoxicity against human A549 cells incubated for 72 hrs by MTT assay. The data set is classed as functional.
For the next data set, the system named is HepG2. Put plainly: Cytotoxicity against human HepG2 cells incubated for 72 hrs by MTT assay. The data set is classed as functional.

Sequence of Tyrosyl-DNA phosphodiesterase 1 (Q9NUW8 whole entry): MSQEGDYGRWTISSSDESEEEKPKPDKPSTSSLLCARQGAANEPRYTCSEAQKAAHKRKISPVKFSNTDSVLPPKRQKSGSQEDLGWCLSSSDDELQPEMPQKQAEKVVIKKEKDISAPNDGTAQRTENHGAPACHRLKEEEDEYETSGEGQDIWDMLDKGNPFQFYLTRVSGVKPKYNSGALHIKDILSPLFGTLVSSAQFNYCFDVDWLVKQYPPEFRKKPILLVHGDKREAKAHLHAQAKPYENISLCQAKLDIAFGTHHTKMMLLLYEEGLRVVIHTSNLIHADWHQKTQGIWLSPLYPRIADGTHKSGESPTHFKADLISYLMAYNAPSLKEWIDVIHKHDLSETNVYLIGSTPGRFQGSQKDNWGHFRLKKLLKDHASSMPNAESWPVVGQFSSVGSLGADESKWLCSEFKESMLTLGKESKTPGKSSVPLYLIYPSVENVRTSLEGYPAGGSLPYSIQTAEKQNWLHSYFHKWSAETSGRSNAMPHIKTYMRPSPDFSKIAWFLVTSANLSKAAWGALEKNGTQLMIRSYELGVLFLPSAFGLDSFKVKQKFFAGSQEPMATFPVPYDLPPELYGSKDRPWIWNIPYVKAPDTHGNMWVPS

For `CC1(C)CC[C@]23CC[C@]4(C)[C@H](CC[C@@H]5[C@@]6(C)O[C@@H](CC#N)C(C)(C)[C@@H]6CC[C@]54C)[C@H]2[C@H]1OC3`, in data set [1], the midpoint of inhibition, the IC50, lay at 8 µM.
Take `CC1(C)CC[C@]23CC[C@]4(C)C(CC[C@@H]5C(=O)C(C(C)(C)[C@H](CC#N)OC(=O)Cl)CC[C@]54C)[C@H]2[C@H]1OC3` (some centres undefined): the 50% cytotoxic concentration (CC50) (in the data set with PC-3; in data set [2]; in the data set with MDA-MB-453; with HCT-116; in the data set on MCF7; in the data set with MDA-MB-231) was above 100 µM throughout. The CC50 (in the data set on RD; in data set [5]; in the data set with A549; in the data set with HepG2) was above 100 µM throughout. Besides, the CC50 at 72 h in [3] and in data set [4] was above 100 µM in each case. In addition, in data set [1], the IC50 is above 100 µM.
For the molecule `CC(C)[C@@H]1CC[C@]2(COC(=O)c3ccccc3)CC[C@]3(C)[C@H](CC[C@@H]4[C@@]5(C)O[C@H](CC#N)C(C)(C)[C@@H]5CC[C@]43C)[C@@H]12`, the CC50 (with PC-3; in [2]; in the data set on MDA-MB-453; in the data set on HCT-116; with MCF7; in the data set on MDA-MB-231) was above 100 µM throughout. Further, the cytotoxic concentration (CC50) (in the data set on RD; in [5]; in the data set on A549; in the data set on HepG2) was above 100 µM throughout. The cytotoxic concentration (CC50) at 72 h in data set [3] and in [4] was above 100 µM in each case. This molecule also came in with an IC50 in [1] of 12.1 µM.
In the case of `CC1(C)CC[C@]23CC[C@]4(C)[C@H](CC[C@@H]5[C@@]6(C)O[C@H](CC#N)C(C)(C)[C@@H]6CC[C@]54C)[C@H]2[C@H]1OC3`, the CC50 in the data set on PC-3 is above 100 µM; in data set [2], above 100 µM; in the data set on MDA-MB-453, above 100 µM; in the data set on HCT-116, 90.3 µM; in the data set with MCF7, 84.9 µM; in the data set with MDA-MB-231, above 100 µM. Besides, the cytotoxic concentration (CC50) was above 100 µM with RD, above 100 µM in data set [5], 34 µM with A549 and above 100 µM in the data set on HepG2. Moreover, the half-maximal cytotoxic concentration (CC50) at 72 h in data set [3] and in [4] was above 100 µM in each case. This molecule also yielded an IC50 in data set [1] of 3.59 µM.
For the molecule `CC(C)[C@@H]1CC[C@]2(COC(=O)c3ccccc3)CC[C@]3(C)[C@H](CC[C@@H]4[C@@]5(C)C(=O)[C@H]6O[C@H]6C(C)(C)[C@@H]5CC[C@]43C)[C@@H]12`, the CC50 (in the data set on PC-3; in data set [2]; in the data set on MDA-MB-453; in the data set with HCT-116; in the data set with MCF7; in the data set on MDA-MB-231) was above 100 µM each time. For the same molecule, the cytotoxic concentration (CC50) (in the data set with RD; in data set [5]; in the data set on A549; in the data set with HepG2) was above 100 µM throughout. For the same molecule, the CC50 at 72 h in [3] and in data set [4] was above 100 µM in each case. The molecule further registered an IC50 in data set [1] of 3 µM.
As to `CC(C)[C@@H]1CC[C@]2(COC(=O)c3ccccc3)CC[C@]3(C)[C@H](CC[C@@H]4[C@@]5(C)[C@@H](O)C=CC(C)(C)[C@@H]5CC[C@]43C)[C@@H]12`, the CC50 (in the data set with PC-3; in data set [2]; in the data set with MDA-MB-453; with HCT-116; with MCF7; in the data set with MDA-MB-231) was above 100 µM in each case. In addition, the cytotoxic concentration (CC50) (in the data set with RD; in data set [5]; with A549; in the data set with HepG2) was above 100 µM throughout. For the same molecule, the 50% cytotoxic concentration (CC50) at 72 h in data set [3] and in [4] was above 100 µM in each case. Besides, the IC50 in [1] was found to be 9 µM.
Regarding `CC(C)[C@@H]1CC[C@]2(COC(=O)c3ccccc3)CC[C@]3(C)[C@H](CC[C@@H]4[C@@]5(C)[C@@H](O)[C@H]6O[C@H]6C(C)(C)[C@@H]5CC[C@]43C)[C@@H]12`, the 50% cytotoxic concentration (CC50) (with PC-3; in [2]; in the data set with MDA-MB-453; in the data set with HCT-116; in the data set with MCF7; with MDA-MB-231) was above 100 µM throughout. Besides, the 50% cytotoxic concentration (CC50) (in the data set with RD; in data set [5]; in the data set on A549; in the data set on HepG2) was above 100 µM in each case. In addition, the CC50 at 72 h in data set [3] and in [4] was above 100 µM in each case. Further, inhibition in data set [1] was half-maximal at 5.1 µM (IC50).
With `C=C1[C@H]2CC[C@@H]3[C@H]4[C@H](C(C)C)CC[C@]4(COC(=O)c4ccccc4)CC[C@@]3(C)[C@]2(C)CC[C@@H]1C(C)(C)[C@@H]1O[C@H]1C#N`, the CC50 (in the data set with PC-3; in data set [2]; in the data set with MDA-MB-453; with HCT-116; in the data set on MCF7; in the data set with MDA-MB-231) was above 100 µM each time. In addition, the CC50 (with RD; in [5]; in the data set on A549; in the data set with HepG2) was above 100 µM each time. The CC50 at 72 h in data set [3] and in data set [4] was above 100 µM each time. This molecule also displayed an IC50 in [1] of 8 µM.
Regarding `CC(C)[C@@H]1CC[C@]2(COC(=O)c3ccccc3)CC[C@]3(C)[C@H](CC[C@@H]4[C@@]5(C)/C(=N/O)C[C@@H](O)C(C)(C)[C@@H]5CC[C@]43C)[C@@H]12`, the half-maximal cytotoxic concentration (CC50) (in the data set on PC-3; in data set [2]; with MDA-MB-453; in the data set on HCT-116; in the data set with MCF7; in the data set on MDA-MB-231) was above 100 µM each time. The CC50 was above 100 µM in the data set with RD, above 100 µM in [5], 57.7 µM in the data set on A549 and above 100 µM in the data set with HepG2. Also, the 50% cytotoxic concentration (CC50) at 72 h in [3] and in data set [4] was above 100 µM throughout. Further, half-maximal inhibition in [1] (IC50) was put at 2.9 µM.
For `CC(C)[C@@H]1CC[C@]2(COCc3ccccc3)CC[C@]3(C)[C@H](CC[C@@H]4C(=O)C(C(C)(C)[C@H](CC#N)OC(=O)Cl)CC[C@]43C)[C@@H]12` (some centres undefined), the CC50 (with PC-3; in [2]; in the data set with MDA-MB-453; with HCT-116; with MCF7; with MDA-MB-231) was above 100 µM throughout. In addition, the CC50 in the data set on RD is above 100 µM; in [5], above 100 µM; with A549, 56.9 µM; in the data set on HepG2 it was above 100 µM. For the same molecule, the CC50 at 72 h in data set [3] and in [4] was above 100 µM in each case. In data set [1], this molecule showed a 50% inhibitory concentration (IC50) of 12 µM.
Take `CC(C)[C@@H]1CC[C@]2(CO)CC[C@]3(C)[C@H](CC[C@@H]4[C@@]5(C)/C(=N/O)C[C@@H](O)C(C)(C)[C@@H]5CC[C@]43C)[C@@H]12`: the CC50 was above 100 µM in the data set with PC-3; above 100 µM in data set [2]; above 100 µM with MDA-MB-453; 57.4 µM in the data set with HCT-116; above 100 µM with MCF7; above 100 µM with MDA-MB-231. The CC50 (with RD; in data set [5]; in the data set with A549; in the data set with HepG2) was above 100 µM in each case. The cytotoxic concentration (CC50) at 72 h in data set [3] and in [4] was above 100 µM each time. For the same molecule, the concentration for half-maximal inhibition (IC50) in data set [1] was determined as 2.9 µM.
As to `CC(C)[C@@H]1CC[C@]2(COC(=O)c3ccccc3)CC[C@]3(C)[C@H](CC[C@@H]4[C@@]5(C)CC=CC(C)(C)[C@@H]5CC[C@]43C)[C@@H]12`, the half-maximal cytotoxic concentration (CC50) (in the data set on PC-3; in data set [2]; in the data set with MDA-MB-453; in the data set on HCT-116; with MCF7; in the data set on MDA-MB-231) was above 100 µM in each case. Moreover, the CC50 (with RD; in data set [5]; in the data set with A549; with HepG2) was above 100 µM each time. Besides, the half-maximal cytotoxic concentration (CC50) at 72 h in data set [3] and in [4] was above 100 µM each time. In addition, the half-inhibitory concentration (IC50) in data set [1] is above 100 µM.
For the molecule `CC(C)[C@@H]1CC[C@]2(COC(=O)c3ccccc3)CC[C@]3(C)[C@H](CC[C@@H]4[C@@]5(C)CC[C@H](O)C(C)(C)[C@@H]5CC[C@]43C)[C@@H]12`, the half-maximal cytotoxic concentration (CC50) (in the data set with PC-3; in data set [2]; with MDA-MB-453; in the data set with HCT-116; with MCF7; in the data set with MDA-MB-231) was above 100 µM each time. Besides, the CC50 (in the data set on RD; in [5]; with A549; with HepG2) was above 100 µM throughout. In addition, the 50% cytotoxic concentration (CC50) at 72 h in data set [3] and in [4] was above 100 µM each time.
In the case of `COc1cccc2c1C(=O)c1c(O)c3c(c(O)c1C2=O)C[C@@](O)(C(=O)CO)C[C@@H]3O[C@H]1C[C@H](N)[C@H](O)[C@H](C)O1` [DOXORUBICIN], the CC50 turned out to be 12.6 µM in the data set on PC-3; 1.3 µM in data set [2]; 0.04 µM in the data set with MDA-MB-453; 1.3 µM in the data set with HCT-116; 0.4 µM in the data set with MCF7; 0.34 µM in the data set on MDA-MB-231. The 50% cytotoxic concentration (CC50) in the data set on RD was determined as 1.3 µM; in [5], 2.67 µM; in the data set on A549, 2 µM; with HepG2, 1.8 µM. Also, the half-maximal cytotoxic concentration (CC50) at 72 h in [3] is 0.4 µM; in [4], 0.5 µM.
`CC[C@@]1(O)C(=O)OCc2c1cc1n(c2=O)Cc2cc3c(CN(C)C)c(O)ccc3nc2-1` [TOPOTECAN] yielded a cytotoxic concentration (CC50) in [5] of 0.456 µM.
